Consider three compounds from patent US20130053434A1, “IRREVERSIBLE INHIBITORS USEFUL FOR THE TREATMENT OF KINASE-RELATED PATHOLOGIES” (CENTRE NATIONAL DE LA RECHERCHE SCIENTIFIQUE, priority 2009, published 2013).

The target of one data set is MEK1 (Homo sapiens, UniProt Q02750). Conditions: cited from earlier work.
A short description of another data set: plasma half-life. The format is in vitro ADME.
The conditions of data set [1]: in vivo; cited from earlier work.
A further data set has as its target MEK (Homo sapiens, UniProt Q02750). To be noted: reported values; read-out: MEK inhibition; cited from earlier work.
Another data set has as its target ERK2 (Homo sapiens, UniProt P28482). To be noted: Nakajima and Miyake; cited from earlier work.
Data set [2] can be described thus: inactivation by thiols such as DTT or GST. The format is in vitro ADME.
For data set [3], the target named is T1, VEGFR2 (Homo sapiens, UniProt P35968). The experiment in a line: cellular inhibition of VEGFR2. Format: cell-based. Conditions: triplicate. How it is done: FIG. 21. […] Assays were performed in triplicate.
T1 sequence (P35968 20-1356, species assumed): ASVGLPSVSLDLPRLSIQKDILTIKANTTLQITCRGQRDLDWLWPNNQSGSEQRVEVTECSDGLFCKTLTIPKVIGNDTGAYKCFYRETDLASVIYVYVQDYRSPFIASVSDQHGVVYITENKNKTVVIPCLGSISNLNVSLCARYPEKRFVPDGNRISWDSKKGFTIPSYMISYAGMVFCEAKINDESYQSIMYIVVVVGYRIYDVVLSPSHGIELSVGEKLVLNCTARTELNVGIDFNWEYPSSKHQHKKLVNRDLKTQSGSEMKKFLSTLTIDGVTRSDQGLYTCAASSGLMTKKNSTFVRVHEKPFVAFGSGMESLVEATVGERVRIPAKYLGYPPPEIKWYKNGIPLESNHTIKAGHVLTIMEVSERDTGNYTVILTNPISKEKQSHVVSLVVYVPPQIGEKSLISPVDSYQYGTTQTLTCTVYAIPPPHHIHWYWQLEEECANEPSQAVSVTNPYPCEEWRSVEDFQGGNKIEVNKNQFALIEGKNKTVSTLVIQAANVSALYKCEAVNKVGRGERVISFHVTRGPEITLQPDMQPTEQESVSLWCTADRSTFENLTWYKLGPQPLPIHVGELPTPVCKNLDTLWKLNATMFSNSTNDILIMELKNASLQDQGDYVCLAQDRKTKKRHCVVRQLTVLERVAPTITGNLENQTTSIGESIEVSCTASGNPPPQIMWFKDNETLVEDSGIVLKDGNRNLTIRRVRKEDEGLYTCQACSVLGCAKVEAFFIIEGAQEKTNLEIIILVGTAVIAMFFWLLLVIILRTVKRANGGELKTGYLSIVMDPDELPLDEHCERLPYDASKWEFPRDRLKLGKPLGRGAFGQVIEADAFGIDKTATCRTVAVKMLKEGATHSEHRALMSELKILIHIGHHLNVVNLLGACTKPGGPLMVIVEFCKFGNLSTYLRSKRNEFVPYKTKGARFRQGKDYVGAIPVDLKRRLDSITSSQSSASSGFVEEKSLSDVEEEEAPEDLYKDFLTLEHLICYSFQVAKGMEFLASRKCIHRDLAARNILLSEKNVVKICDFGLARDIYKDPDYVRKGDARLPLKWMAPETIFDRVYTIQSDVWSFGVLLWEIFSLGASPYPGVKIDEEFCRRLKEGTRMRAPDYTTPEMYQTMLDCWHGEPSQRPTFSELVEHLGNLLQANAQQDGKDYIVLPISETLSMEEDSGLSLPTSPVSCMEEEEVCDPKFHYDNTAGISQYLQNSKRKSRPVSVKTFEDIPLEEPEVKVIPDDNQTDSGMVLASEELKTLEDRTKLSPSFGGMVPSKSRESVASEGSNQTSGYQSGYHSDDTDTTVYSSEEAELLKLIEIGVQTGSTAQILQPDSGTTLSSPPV
To gage the undiscriminate reactivity of these enone resorcylic acids with thiols, fluoroenone 2 and the parent analogue lacking the fluoride were treated with one equivalent of DTT (2 mM) as a prototypical thiol nucleophile in PBS (pH 7.4) containing 1% DMSO. […] With fluoroenone 1 and 2 in hand, we tested their efficacy against VEGF-R2 which was frequently found to be the most inhibited kinase in our profile of cis-enone resorcylic acid library (Dakas, P. Y., et al. (2007) Angew. Chem. Int. Ed. Engl. 46, 6899-902; Jogireddy, R., et al. (2009) Chem. Eur. J. 15, 11498-506) and KIT which represents a less inhibited kinase. […] Their cellular activity against VEGF-R2 did parallel the biochemical activity. […] During the course of our investigation, a similar modification was reported by researchers from Esai (Du, H., et al. (2009) Bioorg. Med. Chem. Lett. 19, 6196-9) however, their medicinal chemistry efforts focused the inhibition of inflammation related pathways (MEKs and their down-stream regulatory effect on cytokines) (Du, H., et al. (2009) Bioorg. Med. Chem. Lett. 19, 6196-9; Goto, M., et al. (2009) J. Pharmacol. Exp. Ther. 331, 485-95). […]

Data set [4] is described as follows: reactivity with DTT as prototypical thiol nucleophile. Conditions: one equivalent of DTT (2 mM), PBS pH 7.4, 1% DMSO. Format: physicochemical. As to the method:
To gage the undiscriminate reactivity of these enone resorcylic acids with thiols, fluoroenone 2 and the parent analogue lacking the fluoride were treated with one equivalent of DTT (2 mM) as a prototypical thiol nucleophile in PBS (pH 7.4) containing 1% DMSO. […] With fluoroenone 1 and 2 in hand, we tested their efficacy against VEGF-R2 which was frequently found to be the most inhibited kinase in our profile of cis-enone resorcylic acid library (Dakas, P. Y., et al. (2007) Angew. Chem. Int. Ed. Engl. 46, 6899-902; Jogireddy, R., et al. (2009) Chem. Eur. J. 15, 11498-506) and KIT which represents a less inhibited kinase. […] Their cellular activity against VEGF-R2 did parallel the biochemical activity. […] During the course of our investigation, a similar modification was reported by researchers from Esai (Du, H., et al. (2009) Bioorg. Med. Chem. Lett. 19, 6196-9) however, their medicinal chemistry efforts focused the inhibition of inflammation related pathways (MEKs and their down-stream regulatory effect on cytokines) (Du, H., et al. (2009) Bioorg. Med. Chem. Lett. 19, 6196-9; Goto, M., et al. (2009) J. Pharmacol. Exp. Ther. 331, 485-95). […] It was further shown that the addition of a methyl substituent at the δ position to the enone enhanced the metabolic stability with a tolerable loss of activity (10 fold) (Du, H., et al. (2009) Bioorg. Med. Chem. Lett. 19, 6196-9). […]

Data set [5] has as its target T1, VEGFR2. As to the kind of experiment: biochemical inhibition of VEGF-R2. Conditions: FIG. 20. How it is done:
It should be noted that as these compounds are expected to be irreversible inhibitors, the measured IC50 will depend on the procedure used and caution should be applied in comparing data from experiments performed under different conditions. To obtain a value which best reflects the rate of inactivation, the substrate and inhibitor were added simultaneously to the kinase solution. The data is shown in FIG. 9 (kinases have been ranked from the highest to least inhibited). As evident from FIG. 9, there is very little difference in relative selectivity of kinase inhibition throughout the library under these conditions. […] Overall, the trend of structure activity relationship which emerged from this screen is that the chiral methyl group at the ester position, while not essential, does provide higher activity (entry 6 vs. 10, 7 vs. 11 and 8 vs. 12). Substitution at the adjacent position with a hydroxyl group (entry 14 vs. 7) or at the β-position of the enone with a methyl abrogated activity (15-19). […] The trend of activity for the three natural products can be ranked as follows: alkene=epoxide>alkane. […] The two modifications of R^2 tested were beneficial in certain combinations. For example, the extra hydroxyl group present in fragment i does afford a significant (10 fold) gain of activity (8 vs. 7) in combination with fragment a. […]

Sequence of ERK2 (P28482 whole entry, species assumed): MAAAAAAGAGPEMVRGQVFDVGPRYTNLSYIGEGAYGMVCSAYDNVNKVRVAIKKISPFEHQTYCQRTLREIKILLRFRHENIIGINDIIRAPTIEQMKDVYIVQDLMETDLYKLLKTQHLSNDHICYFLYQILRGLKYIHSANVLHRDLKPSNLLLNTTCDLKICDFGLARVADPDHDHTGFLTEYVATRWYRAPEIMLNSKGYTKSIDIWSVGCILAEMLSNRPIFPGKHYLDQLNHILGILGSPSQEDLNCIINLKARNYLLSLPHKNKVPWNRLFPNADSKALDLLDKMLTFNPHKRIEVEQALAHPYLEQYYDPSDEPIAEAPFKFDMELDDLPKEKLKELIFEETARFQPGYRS
Sequence of MEK (Q02750 whole entry): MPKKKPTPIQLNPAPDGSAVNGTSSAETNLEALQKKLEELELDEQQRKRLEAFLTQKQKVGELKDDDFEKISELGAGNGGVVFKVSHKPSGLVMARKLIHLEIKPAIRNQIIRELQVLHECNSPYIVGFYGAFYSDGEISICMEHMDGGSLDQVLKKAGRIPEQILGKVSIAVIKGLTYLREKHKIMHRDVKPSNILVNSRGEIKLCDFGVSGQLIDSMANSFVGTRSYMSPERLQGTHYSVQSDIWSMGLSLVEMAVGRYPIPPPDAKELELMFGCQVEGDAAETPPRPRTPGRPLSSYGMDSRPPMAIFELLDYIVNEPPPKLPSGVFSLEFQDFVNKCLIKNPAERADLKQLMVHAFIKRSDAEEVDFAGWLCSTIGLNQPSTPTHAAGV
Sequence of MEK1 (Q02750 whole entry): as above

As to `CCNc1cc(O)c2c(c1)/C=C/C[C@H](O)[C@H](O)C(=O)/C=C\[C@@H](C)[C@H](C)OC2=O` [E6201], on MEK1, the “selectivity for MEK1 relatively to PDGFRβ” value is above 200 fold.

For `COc1cc(O)c2c(c1)/C=C/C[C@H](O)[C@H](O)C(=O)/C=C\C[C@H](C)OC2=O` [LL-Z1640-2], the plasma half-life result in the data set “plasma half-life” is reported as “short plasma half-life”. Besides, the “efficacy in animal models” value in data set [1] is listed as “effective in animal models”. In addition, the IC50 on MEK is 411 nM; at VEGFR2 [3], 6.5 nM. For the same compound, the “difference in activity between LL-Z1640-2 and L-783277 in inhibition of ERK2” value at ERK2 was 50 fold. Besides, in data set [2], the inactivation by thiols result was “inactivated by thiols such as DTT or GST”.

Regarding `C[C@H]1C/C=C(/F)C(=O)[C@@H](O)[C@@H](O)CCOc2cc(O)cc(O)c2C(=O)O1` [fluoroenone 2], the “reactivity with DTT compared with parent analogue lacking the fluoride” value in [4] is reported as “reacting slower”. Further, the IC50 on VEGFR2 [5] came to 60.5 nM.
